Measurements: US20130029981A1, “COMPOUNDS, COMPOSITIONS, AND METHODS FOR CONTROLLING BIOFILMS” (Katholieke Universiteit Leuven, priority 2009, published 2013)
Like-named read-outs stand apart in the source and are kept apart here.

Columns and labels:
[1] = tested on: Salmonella Typhimurium ATCC 14028; test: Antibacterial activity: growth inhibition, OD600 after 24 h (GIC50); assay type: cell-based
Description: Evaluation of antibacterial-inhibitory activity of some substituted 2-amino-1H-imidazoles of the invention was carried out by diluting an overnight culture of Salmonella Typhimurium ATCC 14028 into a liquid medium. 200 μl of the diluted overnight culture was added to each well of a microtiter plate together with different concentrations of the test compound (1/2 dilution series of the compound). After an incubation of 24 hours the optical density at 600 nm of each well was determined with a microtiter plate reader.
Starting from a 40 mM stock solution of each compound in DMSO, two-fold serial dilutions in 100 μl liquid broth per well were prepared in dublicate in sterile transparant microtiter plates. The broth used was TSB 1/20 for measurements at 25° C. and CFA (in case of Salmonella Typhimurium) and LBNS (in case of Pseudomonas aeruginosa) for measurements at 37° C. Subsequently an overnight culture of the bacteria (S. Typhimurium ATCC14028 or P. aeruginosa PA14) was diluted 1/200 into the corresponding liquid broth and 100 μl was added to each well of the microtiterplate resulting in a total amout of 200 μl medium per well. After an incubation of 24 hours the optical density at 600 nm of each well was determined with a microtiter plate reader (VERSAmax, Molecular Devices).
Evaluation of antibacterial-inhibitory activity of some substituted imidazo[1,2-a]pyrimidinium bromide salts of the invention was carried out by diluting an overnight culture of Salmonella Typhimurium ATCC14028 or Pseudomonas aeruginosa PA141/200 into liquid medium. 200 μl of the diluted overnight culture was added to each well of a microtiterplate together with different concentrations of the test compound (1/2 dilution series of the compound). After an incubation of 24 hours the optical density at 600 nm of each well was determined with a microtiter plate reader.

S. Typhimurium ATCC14028 [2] = test: Static peg assay for prevention of biofilm formation (Calgary device, crystal violet); assay type: cell-based, Salmonella Typhimurium
How it was run: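 Calgary 96-peg device, ca. 10^6 cells of ATCC14028 per well in TSB 1/20 for 24 h at 25° C (or 48 h at 16° C, medium and compound renewed at 24 h), or in CFA broth for 24 h at 37° C, static, with two-fold compound dilutions. Crystal violet stain, acetic acid extraction, OD570. IC50 from 2–3 independent experiments.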

[3] = tested on: Pseudomonas aeruginosa PA14; test: as above; assay type: cell-based
How it was run: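 P. aeruginosa PA14 overnight TSB culture diluted 1:100 into broth with two-fold compound dilutions, biofilms grown 24 h static on polystyrene pegs of a Calgary device at 25 °C (TSB 1/20), 30 °C or 37 °C (CFA and/or LBNS). Biofilm quantified by crystal violet, extracted with 30% acetic acid, A570.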

S. Typhimurium ATCC14028 [4] = test: Bioscreen assay: influence on planktonic growth curve; assay type: cell-based, Salmonella Typhimurium; parameters: key: x: no influence on the planktonic growth at the IC50 for biofilm inhibition; ∘: planktonic growth is retarded at the IC50 for biofilm inhibition; conditions: planktonic growth at the IC50 for biofilm inhibition, 25° C.
Text: Some of the tested compounds show a concentration range in which biofilm formation is inhibited but no effect on planktonic growth is observed. These compounds are particularly interesting for prevention of biofilm formation since the development of resistance against these compounds is less likely. Table 8 indicates whether the different compounds have an effect on the planktonic growth of the bacteria at the IC50 for biofilm inhibition. To construct Table 8, the effect of the tested compounds on the growth curve of the bacteria was determined at a concentration equal to the IC50 for biofilm inhibition, by using the Bioscreen system available from Oy Growth Curves Ab Ltd). The Bioscreen device from Oy Growth Curves Ab Ltd was used for measuring the influence of the chemical compounds on the planktonic growth of Salmonella Typhimurium and Pseudomonas aeruginosa. The Bioscreen is a computer controlled incubator/reader/shaker that uses 10×10 well microtiter plates and measures light absorbance of each well at a specified wave length in function of time. An overnight culture of S. […] The broth used was TSB 1/20 for the experiments at 16° C. and 25° C. For experiments at 37° C. CFA medium was used for S. […] As a control 3 μl of the appropriate solvent (DMSO or EtOH) was also added to the plate in 3- or 4-fold. The microtiter plate was incubated in the Bioscreen device at 16° C., 25° C. or 37° C. for at least 36 hours, with continious medium shaking. The absorbance of each well was measured at 600 nm each 15 minutes. Excel was used to generate the growth curves for treated the treated wells and the untreated control wells. Some of the compounds show a concentration range in which biofilm formation is inhibited but no effect on the planktonic growth is observed. Table 14 indicates if the different compounds have an effect on the planktonic growth of the bacteria at the IC50 for biofilm inhibition. To construct this table the effect of the compounds on the growth curve of the bacteria was determined at a concentration equal to the IC50 for biofilm inhibtion, by using the Bioscreen system from Oy Growth Curves Ab Ltd.

[5] = 25° C., Table 11, read-out: IC50 (biofilm formation)
[6] = 25° C., Table 14, read-out: IC50 biofilm inhibition
[7] = OD600 after 24 hours of growth, read-out: GIC(50)
[8] = S. Typhimurium ATCC 14028, 25° C., read-out: IC50 for biofilm inhibition (25° C.)
[9] = Salmonella enterica, 25° C., Table 11, read-out: IC50 (biofilm formation)
[10] = Salmonella enterica, 25° C., Table 14, read-out: IC50 biofilm inhibition
[11] = 25° C., Table 18, read-out: S. Typhimurium IC50 (biofilm formation)
[12] = 25° C., Table 18, read-out: P. aeruginosa IC50 (biofilm formation)

Structure (SMILES): OC1(c2ccc3c(c2)OCO3)C[n+]2cccnc2N1Cc1ccc2c(c1)OCO2 (centres unmarked) [Compound 80]
- IC50 ([1]; 25° C.): 100 to 200 µM
- IC50 (S. Typhimurium ATCC14028 [2]; [5]): 102 µM
- IC50 (S. Typhimurium ATCC14028 [2]; [6]): 102 µM
- IC50 (S. Typhimurium ATCC14028 [2]; 25° C., Table 19, read-out: IC50 (biofilm formation)): 53.7 µM

Structure (SMILES): Brc1ccc(-c2c[nH]c(NC3CCCC3)n2)cc1 [R1=H, R2=cyclopentyl, R3=H, R4=p-Br—Ph]
- IC50 [1, 7]: 50 to 100 µM

Structure (SMILES): Clc1ccc(-c2c[nH]c(NC3CCCC3)n2)cc1Cl
- IC50 [1, 7]: 50 µM
- IC50 (S. Typhimurium ATCC14028 [2]; [8]): 6 µM
- IC50 ([3]; P. aeruginosa PA14, 25° C., read-out: IC50 for biofilm inhibition (25° C.)): 1 µM

Structure (SMILES): OC1(c2ccc(Br)cc2)C[n+]2cccnc2N1C1CC1.[Br-] (centres unmarked) [R1=Cyclopropyl, R3=4-Br—Ph, R4=H, 1-cyclopropyl-2-hydroxy-2-(4-bromophenyl)-2,3-dihydro-1H-imidazo[1,2-a]-pyrimidin-4-ium bromide]
- IC50 ([1]; Salmonella enterica, 25° C.): 25 to 50 µM
- Influence on growth (S. Typhimurium ATCC14028 [4]): x
- IC50 (S. Typhimurium ATCC14028 [2]; [9]): 27 µM
- IC50 (S. Typhimurium ATCC14028 [2]; [10]): 27 µM

Structure (SMILES): Clc1ccc(-c2cnc(NCc3ccccc3)[nH]2)cc1 [Compound 127]
- IC50 [1, 7]: 100 µM
- IC50 (S. Typhimurium ATCC14028 [2]; 25° C., Table 22, read-out: S. Typhimurium IC50 (biofilm formation)): 30.7 µM
- IC50 (S. Typhimurium ATCC14028 [2]; [8]): 31 µM
- IC50 ([3]; 25° C., Table 22, read-out: P. aeruginosa IC50 (biofilm formation)): 26.3 µM

Structure (SMILES): COc1ccc(CCN2c3nccc[n+]3CC2(O)c2ccc([N+](=O)[O-])cc2)cc1OC (centres unmarked) [R1=2-(3,4-diMeO—Ph)Et, R3=4-NO2-Ph, R4=H, 1-(2-(3,4-dimethoxyphenyl)ethyl)-2-hydroxy-2-(4-nitrophenyl)-2,3-dihydro-1H-imidazo-[1,2-a]pyrimidin-4-ium bromide]
- IC50 ([1]; Salmonella enterica, 25° C.): 100 to 200 µM
- IC50 (S. Typhimurium ATCC14028 [2]; [9]): 127 µM
- IC50 (S. Typhimurium ATCC14028 [2]; [10]): 127 µM

Structure (SMILES): OC1(c2ccc(Cl)cc2)C[n+]2cccnc2N1C1CC1 (centres unmarked) [Compound 61]
- IC50 ([1]; 25° C.): 100 to 200 µM
- IC50 (S. Typhimurium ATCC14028 [2]; [5]): 120 µM
- IC50 (S. Typhimurium ATCC14028 [2]; [6]): 120 µM
- IC50 (S. Typhimurium ATCC14028 [2]; [11]): 82.7 µM
- IC50 [3, 12]: 179 µM

Structure (SMILES): Clc1ccc(-c2c[nH]c(NC3CCCC3)n2)cc1 [R1=H, R2=cyclopentyl, R3=H, R4=p-Cl—Ph]
- IC50 [1, 7]: 45 µM
- IC50 (S. Typhimurium ATCC14028 [2]; [8]): 4 µM

Structure (SMILES): OC1(c2ccccc2)C[n+]2cccnc2N1C1CCCCCC1 (centres unmarked) [Compound 59]
- IC50 (S. Typhimurium ATCC14028 [2]; 25° C., 24 hours, Table 15, read-out: (1) IC50 (biofilm inhibition)): 84.2 µM
- IC50 (S. Typhimurium ATCC14028 [2]; [11]): 84.2 µM
- IC50 ([3]; 25° C., 24 hours, Table 15, read-out: (2) IC50 (biofilm inhibition)): 5.81 µM
- IC50 [3, 12]: 250 µM

Structure (SMILES): CCCCCCCCNc1ncc(-c2ccc(S(C)(=O)=O)cc2)[nH]1 [Compound 116]
- IC50 (S. Typhimurium ATCC14028 [2]; S. Typhimurium ATCC 14028, 25° C., read-out: S. Typhimurium IC50 (biofilm formation)): 41.8 µM
- IC50 ([3]; P. aeruginosa PA14, 25° C., read-out: P. aeruginosa IC50 (biofilm formation)): ~3.1 µM

Structure (SMILES): CC(C)(C)N1c2nccc[n+]2CC1(O)c1ccc([N+](=O)[O-])cc1 (centres unmarked) [Compound 33]
- IC50 (S. Typhimurium ATCC14028 [2]; 25° C., Table 16, read-out: S. Typhimurium IC50 (biofilm formation)): 211 µM
- IC50 ([3]; 25° C., Table 16, read-out: P. aeruginosa IC50 (biofilm formation)): 41.5 µM

Structure (SMILES): CCCCN1c2nccc[n+]2CC1(O)C(c1ccccc1)c1ccccc1 (centres unmarked) [R1=n-butyl, R3=dimethylphenyl, R4=H, 1-butyl-2-hydroxy-2-(diphenyl-methyl)-2,3-dihydro-1H-imidazo[1,2-a]pyrimidin-4-ium bromide]
- IC50 ([1]; Salmonella enterica, 25° C.): 50 to 100 µM
- IC50 (S. Typhimurium ATCC14028 [2]; [10]): 72.1 µM

Structure (SMILES): CCCCCCCC[n+]1c(-c2ccc(OC)cc2)cn2cccnc21.[O-][Cl+3]([O-])([O-])[O-] [2-(4-Methoxyphenyl)-1-octylimidazo[1,2-a]pyrimidin-1-ium perchlorate]
- IC50 (S. Typhimurium ATCC14028 [2]; Salmonella enterica, 24 h, read-out: (1) IC50 (biofilm inhibition)): 34.8 µM
- IC50 ([3]; Pseudomonas aeruginosa, PA14, 24 h, read-out: (2) IC50 (biofilm inhibition)): 8.73 µM
